Viability data for 1 substance are collected here from patent US12350288B2, “Inducing caspase activity” (Dow Global Technologies LLC, priority 2019, dated 2025).

The subject of this data set is HT-29 cells (human colon; colorectal adenocarcinoma).

A value given as a limit tells only on which side of the number the result lay.

Protocol: HT-29 (ATCC® HTB-38™) cells (which contained approximately 1×10^6 cells per mL) were initiated and seeded into a T-25 flask containing McCoy's 5A and fetal bovine serum (10% (v/v)). […] The cells were grown in a humidified incubator (SANYO INCT-16-CMT; MCO-19AIC (UV)) maintained at 37° C. and 5% CO2. Then, the cells were rinsed with 1× Dulbecco's Phosphate-Buffered Saline and sub-cultured in T-75 flasks 1 to 3 times per week using 1× Trypsin-EDTA, applied for ≤5 minutes; enzymatic action of the trypsin-EDTA was stopped by adding complete growth medium to the detached cells. Then, upon reaching 80 to 90% confluency the cells were split into the following split ratio ranges: 1:5 to 1:16. Subculture and growth expansion activities were recorded, such as passage number, % confluency, % viability (only on experimental set-up day), and cell morphology throughout all phases. The cells were maintained in log-phase growth.
Cell culture plating was performed as follows. A cell suspension from a single 80 to 90% confluent T-75 flask was harvested with trypsin-EDTA and complete growth medium. To obtain cell concentration and viability, cell counts were obtained using a COUNTESS automated cell counter (INVITROGEN C10227; CNTR-7-CMT) in which 2 chambers of each slide were provided with 10 μL each of 1:1, 0.4% trypan-blue dye (INVITROGEN T10282) and cell suspension. […]

Broadly, the viability is a read-out of living cells in per cent, often relative to untreated cells. A high value points to better survival. Consider “Poly(ethylene glycol) methyl ether tosylate”, for which the viability was no less than 70%.
